{"source": "paper PMC3933009", "about": "“Identification and characterization of a galacturonic acid transporter from Neurospora crassa and its application for Saccharomyces cerevisiae fermentation processes” (Biotechnology for Biofuels, 2014)", "format_in_all_cases": "cell-based", "key": {"[1]": {"target": "T1, quinate permease (NCU06026; quinate-Y) (Neurospora crassa, UniProt P11636)", "T1 construct": "gene qa-y; native protein in mycelia; wild type compared with deletion strain", "T1 sequence (P11636 whole entry)": "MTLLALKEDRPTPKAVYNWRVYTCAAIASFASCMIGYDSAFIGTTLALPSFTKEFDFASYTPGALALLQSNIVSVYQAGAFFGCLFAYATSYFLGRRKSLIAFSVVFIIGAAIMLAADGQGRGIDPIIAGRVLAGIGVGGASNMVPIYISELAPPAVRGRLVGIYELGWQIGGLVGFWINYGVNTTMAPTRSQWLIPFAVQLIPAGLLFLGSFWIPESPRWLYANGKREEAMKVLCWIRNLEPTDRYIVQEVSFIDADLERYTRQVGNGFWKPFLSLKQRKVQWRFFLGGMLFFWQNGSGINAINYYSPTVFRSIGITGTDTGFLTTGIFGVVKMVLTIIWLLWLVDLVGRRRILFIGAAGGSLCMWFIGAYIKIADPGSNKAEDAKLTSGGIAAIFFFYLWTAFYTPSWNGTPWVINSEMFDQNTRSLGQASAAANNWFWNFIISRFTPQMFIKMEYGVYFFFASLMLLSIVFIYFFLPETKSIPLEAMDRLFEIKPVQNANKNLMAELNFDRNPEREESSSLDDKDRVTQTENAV", "assay": "uptake by induced mycelia, WT versus deletion strain, MS detection", "details": "90 μM quinic acid plus D-GalA, Vogel's salts, 25°C"}, "[2]": {"target": "T2, D-galacturonate reductase (GAAA) (Aspergillus niger, UniProt A8DRH9)", "T2 construct": "codon-optimized gene, Cen6/leu2 vector with TDH3 promoter, expressed in S. cerevisiae with gat-1-GFP integrated", "T2 sequence (A8DRH9 1-412)": "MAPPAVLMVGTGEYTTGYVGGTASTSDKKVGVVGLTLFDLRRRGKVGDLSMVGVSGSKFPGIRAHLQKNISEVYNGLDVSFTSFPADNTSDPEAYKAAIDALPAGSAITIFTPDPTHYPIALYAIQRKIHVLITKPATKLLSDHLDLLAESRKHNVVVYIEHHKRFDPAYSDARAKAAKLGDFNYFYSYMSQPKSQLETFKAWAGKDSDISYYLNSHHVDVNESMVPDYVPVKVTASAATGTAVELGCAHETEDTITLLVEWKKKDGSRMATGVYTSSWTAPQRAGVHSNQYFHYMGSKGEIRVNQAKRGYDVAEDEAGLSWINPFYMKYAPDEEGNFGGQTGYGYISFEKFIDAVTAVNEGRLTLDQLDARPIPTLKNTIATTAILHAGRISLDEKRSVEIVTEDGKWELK", "assay": "bioconversion in engineered yeast, LC-MS/MS of L-galactonic acid", "details": "90 μM D-GalA, pH 5.8, 30°C; endogenous NADPH; GAT-1 co-expressed; native yeast reductase background"}, "[3]": {"target": "T3, uronate dehydrogenase (UDH) (Agrobacterium fabrum, UniProt Q7CRQ0)", "T3 construct": "open reading frame, Cen6/leu2 vector with TDH3 promoter, expressed in S. cerevisiae with gat-1-GFP integrated", "T3 sequence (Q7CRQ0 1-265)": "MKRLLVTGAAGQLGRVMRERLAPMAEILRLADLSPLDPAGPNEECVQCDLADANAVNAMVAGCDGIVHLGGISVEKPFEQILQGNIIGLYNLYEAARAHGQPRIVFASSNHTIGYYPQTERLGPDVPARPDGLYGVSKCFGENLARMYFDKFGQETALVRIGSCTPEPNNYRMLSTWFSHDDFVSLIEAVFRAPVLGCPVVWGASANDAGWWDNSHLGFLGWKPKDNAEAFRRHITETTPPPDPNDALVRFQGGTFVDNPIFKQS", "assay": "bioconversion in engineered yeast, LC-MS/MS of meso-galactaric acid", "details": "90 μM D-GalA, pH 5.8, 30°C; endogenous NAD+; GAT-1 co-expressed"}}}
{"compound": "O=C(O)[C@]1(O)C[C@@H](O)[C@@H](O)[C@H](O)C1", "note": "[quinic acid]", "values": [{"measurement": "uptake by induced mycelia, WT versus deletion strain, MS detection", "setting": "[1]", "value": "almost completely unable to take up qa, indicating that it is the only physiologically relevant transporter"}]}
{"compound": "O=C(O)[C@H]1OC(O)[C@H](O)[C@@H](O)[C@H]1O", "note": "(stereo partly drawn) [D-GalA]", "values": [{"measurement": "bioconversion in engineered yeast, LC-MS/MS of L-galactonic acid", "setting": "[2]", "value": "expression of the reductase resulted in a higher product yield (GAAA/GAT-1)"}, {"measurement": "bioconversion in engineered yeast, LC-MS/MS of meso-galactaric acid", "setting": "[3]", "value": "GalAA production was enzyme (UDH)dependent"}]}
